SMILES strings stand for the structures.

The target in series [1] is T1, Beta-galactoside alpha-2,6-sialyltransferase 1 (Homo sapiens, UniProt P15907).
T1 sequence (P15907 whole entry): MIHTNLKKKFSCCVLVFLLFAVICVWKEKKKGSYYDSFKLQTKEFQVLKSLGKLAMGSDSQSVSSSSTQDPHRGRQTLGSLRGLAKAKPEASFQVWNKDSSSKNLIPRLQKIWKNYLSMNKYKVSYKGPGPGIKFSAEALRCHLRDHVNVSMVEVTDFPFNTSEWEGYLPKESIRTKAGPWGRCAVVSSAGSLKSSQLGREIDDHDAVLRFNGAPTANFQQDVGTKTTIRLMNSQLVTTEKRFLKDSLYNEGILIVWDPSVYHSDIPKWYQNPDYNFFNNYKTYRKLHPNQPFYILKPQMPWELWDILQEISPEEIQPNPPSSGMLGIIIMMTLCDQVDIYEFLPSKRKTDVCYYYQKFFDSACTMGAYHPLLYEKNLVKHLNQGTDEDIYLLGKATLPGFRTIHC
As to the kind of experiment: Inhibition of human alpha-2,6-ST6GAL1 assessed as reduction in sialylated-product formation using Gal-beta1-4GlcNac and CMP-NeuSAc incubated for 15 mins by reverse-phase HPLC analysis.

Series [2] has as its target T2, Sialyltransferase ST3Gal-I (Rattus norvegicus) (UniProt Q6H8N0).
T2 sequence (whole entry): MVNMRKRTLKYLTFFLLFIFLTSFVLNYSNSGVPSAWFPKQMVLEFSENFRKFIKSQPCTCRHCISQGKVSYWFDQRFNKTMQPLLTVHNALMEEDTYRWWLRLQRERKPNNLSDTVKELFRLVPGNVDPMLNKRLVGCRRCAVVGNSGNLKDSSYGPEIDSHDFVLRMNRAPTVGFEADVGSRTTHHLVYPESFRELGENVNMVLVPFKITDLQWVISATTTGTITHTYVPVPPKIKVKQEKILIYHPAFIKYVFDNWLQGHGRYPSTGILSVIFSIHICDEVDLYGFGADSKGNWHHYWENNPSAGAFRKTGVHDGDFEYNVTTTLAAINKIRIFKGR
As to the kind of experiment: Inhibition of rat alpha-2,3-O-ST3GALI assessed as reduction in sialylated-product formation at 500 uM using p-nitrophenyl T-antigen and CMP-NeuSAc incubated for 15 mins by reverse-phase HPLC analysis relative to control.

Series [3] can be described thus: Selectivity ratio of IC50 for of inhibition of rat alpha-2,3-O-ST3GALI to IC50 for inhibition of human alpha-2,6-ST6GAL1.
Series [4] can be described thus: Toxicity in human MDA-MB-231 cells assessed as cell survival at >60 uM relative to control. The conditions noted are these: read-out: Survival. In kind it is cell-based.
The target of series [5] is T3, Beta-galactoside alpha-2,6-sialyltransferase 1 (Homo sapiens) (UniProt P15907).
T3 sequence (whole entry): T1 sequence (P15907 whole entry)
The series can be described thus: Inhibition of human alpha-2,6-ST6GAL1 assessed as reduction in sialylated-product formation at 100 uM using Gal-beta1-4GlcNac and CMP-NeuSAc incubated for 15 mins by reverse-phase HPLC analysis relative to control.

For series [6], the target named is T2, Sialyltransferase ST3Gal-I (Rattus norvegicus). As to the kind of experiment: Inhibition of rat alpha-2,3-O-ST3GALI assessed as reduction in sialylated-product formation at 1 mM using p-nitrophenyl T-antigen and CMP-NeuSAc incubated for 15 mins by reverse-phase HPLC analysis relative to control.
A short description of series [7]: Apparent permeability at pH 7.4 by PAMPA. In general terms: The PAMPA barrier holds no transporters, so it reflects passive diffusion.
Series [8] deals with T4, CMP-N-acetylneuraminate-beta-1,4-galactoside alpha-2,3-sialyltransferase (Rattus norvegicus, UniProt Q02734).
T4 sequence (Q02734 whole entry): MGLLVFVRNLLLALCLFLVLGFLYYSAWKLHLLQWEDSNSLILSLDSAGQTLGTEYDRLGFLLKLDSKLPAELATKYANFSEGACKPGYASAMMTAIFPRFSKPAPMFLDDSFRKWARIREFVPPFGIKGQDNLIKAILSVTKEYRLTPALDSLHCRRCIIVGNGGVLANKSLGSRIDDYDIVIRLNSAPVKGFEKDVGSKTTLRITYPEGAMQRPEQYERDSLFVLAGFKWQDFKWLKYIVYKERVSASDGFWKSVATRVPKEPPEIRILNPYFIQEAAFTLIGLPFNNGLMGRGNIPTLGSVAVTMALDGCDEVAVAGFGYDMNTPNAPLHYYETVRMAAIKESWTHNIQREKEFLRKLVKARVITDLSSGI
As to the kind of experiment: Inhibition of rat alpha-2,3-N-ST3GALIII assessed as reduction in sialylated-product formation using Gal-beta1-4Glc and CMP-NeuSAc incubated for 1.5 hrs by reverse-phase HPLC analysis.

The species entered for series [9] is Rattus norvegicus. The series can be described thus: Selectivity ratio of inhibition of rat alpha-2,3-O-ST3GALI at 500 uM to IC50 for inhibition of rat alpha-2,3-N-ST3GALIII.
The species named for series [10] is Rattus norvegicus. The series can be described thus: Selectivity ratio of inhibition of rat alpha-2,3-O-ST3GALI at 1000 uM to IC50 for inhibition of rat alpha-2,3-N-ST3GALIII.
Series [11] has as its target T5, Sialyltransferase ST3Gal-I (Rattus norvegicus, UniProt Q6H8N0).
T5 sequence (Q6H8N0 whole entry): T2 sequence (whole entry)
The series can be described thus: Inhibition of rat alpha-2,3-O-ST3GALI assessed as reduction in sialylated-product formation using p-nitrophenyl T-antigen and CMP-NeuSAc incubated for 15 mins by reverse-phase HPLC analysis.

The species named for series [12] is Rattus norvegicus. The series can be described thus: Selectivity ratio of IC50 for of inhibition of rat alpha-2,3-O-ST3GALI to IC50 for inhibition of rat alpha-2,3-N-ST3GALIII.

On to `C[C@H](CCC(=O)OCCOCCOCCOCCOCCN=[N+]=[N-])[C@H]1CC[C@H]2[C@@H]3CC[C@@H]4C[C@H](OC(=O)[C@H](CC(=O)O)NC(=O)c5ccc([N+](=O)[O-])cc5)CC[C@]4(C)[C@H]3CC[C@]12C`, for which the IC50 (usually the point on the concentration scale where inhibition reaches its midpoint) in series [1] stood at 7.5 µM. The inhibition (usually the drop in the measured response relative to a control, in per cent) in series [2] is 0%. The Ratio IC50 in series [3] was more than 67. In series [4], the viability is more than 90%.
Take `C[C@@H]1O[C@@H](O[C@H]2[C@H](O[C@H]3[C@H](O[C@H]4CC[C@@]5(C)[C@@H](CC[C@]6(C)[C@@H]5CC=C5[C@@H]7CC(C)(C)C[C@@H](O)[C@]7(C)CC[C@]56C)[C@@]4(C)CO)O[C@H](C(=O)O)[C@@H](O)[C@@H]3O)O[C@H](CO)[C@H](O)[C@@H]2O)[C@H](O)[C@H](O)[C@H]1O`: the inhibition amounted to 68% in [5], 59% in [2] and 83% in series [6].
In the case of `C[C@H](CCC(=O)NCC(=O)O)[C@H]1CC[C@H]2[C@@H]3CC[C@@H]4C[C@H](O)CC[C@]4(C)[C@H]3CC[C@]12C`, the figures for the inhibition in [5], in series [2] and in [6] were 9%, 15% and 41%, respectively.
For the compound `Cn1c(=O)c2[nH]cnc2n(C)c1=O.O` [THEOPHYLLINE], in series [7], the Papp (commonly a coefficient for how fast a substance crosses the barrier) is 1.4 ×10⁻⁶ cm/s.
For `C[C@H](CCC(=O)OCCOCCN=[N+]=[N-])[C@H]1CC[C@H]2[C@@H]3CC[C@@H]4C[C@H](OC(=O)[C@H](CC(=O)O)NC(=O)c5ccc([N+](=O)[O-])cc5)CC[C@]4(C)[C@H]3CC[C@]12C`, in series [1], the IC50 came to 6.7 µM. In addition, in series [2], the inhibition came to 0%. Besides, the Ratio IC50 in series [3] is more than 74. For the same compound, the viability in series [4] is more than 90%.
The matching figures for `COc1ccc2c(CC(=O)N[C@@H](CC(=O)O)C(=O)O[C@@H]3CC[C@@]4(C)[C@H](CC[C@@H]5[C@@H]4CC[C@]4(C)[C@@H]([C@H](C)CCC(=O)OCCOCCOCCN=[N+]=[N-])CC[C@@H]54)C3)cc(=O)oc2c1`: 4.6 µM, 0%, more than 109 and more than 90%.
Turning to `COc1ccc2c(CC(=O)N[C@@H](CC(=O)O)C(=O)O[C@@H]3CC[C@@]4(C)[C@H](CC[C@@H]5[C@@H]4CC[C@]4(C)[C@@H]([C@H](C)CCC(=O)OCCOCCN=[N+]=[N-])CC[C@@H]54)C3)cc(=O)oc2c1`, the IC50 in [1] stood at 5.1 µM. The inhibition in series [2] was 0%. In series [3], the Ratio IC50 is more than 97. Besides, the viability in [4] is more than 90%.
Consider `C[C@H](CCC(=O)OCCOCCN=[N+]=[N-])[C@H]1CC[C@H]2[C@@H]3CC[C@@H]4C[C@H](OC(=O)[C@H](CC(=O)O)Nc5ccc([N+](=O)[O-])c6nonc56)CC[C@]4(C)[C@H]3CC[C@]12C`, for which the IC50 in series [8] is 0.77 µM; in series [1], 4.33 µM. Moreover, the values for the inhibition in [2] and in series [6] were 0% and 74%, respectively. The Selectivity ratio in the series listed under Rattus norvegicus [9] was more than 649; in the series filed under Rattus norvegicus [10] it was less than 1300. In addition, in series [3], the Ratio IC50 was more than 116. For the same compound, in series [4], the viability is more than 90%.
As to `C[C@H](CCC(=O)OCCOCCOCCOCCN=[N+]=[N-])[C@H]1CC[C@H]2[C@@H]3CC[C@@H]4C[C@H](OC(=O)[C@H](CC(=O)O)NC(=O)c5ccc([N+](=O)[O-])cc5)CC[C@]4(C)[C@H]3CC[C@]12C`, the 50% inhibitory concentration (IC50) in series [1] was determined as 5.7 µM. Also, the inhibition in [2] is 0%. Further, the Ratio IC50 in series [3] is more than 88. Further, the viability in [4] was more than 90%.
In the same order, the values of `C[C@H](CCC(=O)OCCOCCOCCN=[N+]=[N-])[C@H]1CC[C@H]2[C@@H]3CC[C@@H]4C[C@H](OC(=O)[C@H](CC(=O)O)NC(=O)c5ccc([N+](=O)[O-])cc5)CC[C@]4(C)[C@H]3CC[C@]12C` are 5.4 µM, 0%, more than 94 and more than 90%.
The matching figures for `C[C@H](CCC(=O)OCCN=[N+]=[N-])[C@H]1CC[C@H]2[C@@H]3CC[C@@H]4C[C@H](OC(=O)[C@H](CC(=O)O)NC(=O)c5ccc([N+](=O)[O-])cc5)CC[C@]4(C)[C@H]3CC[C@]12C`: 7.2 µM, 0%, more than 70 and more than 90%.
In the same order, the values of `COc1ccc2c(CC(=O)N[C@@H](CC(=O)O)C(=O)O[C@@H]3CC[C@@]4(C)[C@H](CC[C@@H]5[C@@H]4CC[C@]4(C)[C@@H]([C@H](C)CCC(=O)OCCN=[N+]=[N-])CC[C@@H]54)C3)cc(=O)oc2c1` are 5.6 µM, 0%, more than 89 and more than 90%.
As to `COc1ccc2c(CC(=O)N[C@@H](CC(=O)O)C(=O)O[C@@H]3CC[C@@]4(C)[C@H](CC[C@@H]5[C@@H]4CC[C@]4(C)[C@@H]([C@H](C)CCC(=O)OCCOCCOCCOCCN=[N+]=[N-])CC[C@@H]54)C3)cc(=O)oc2c1`, the IC50 in series [1] is 5 µM. The inhibition in [2] is 0%. For the same compound, the Ratio IC50 in series [3] was more than 101. Besides, in [4], the viability is more than 90%.
The matching figures for `COc1ccc2c(CC(=O)N[C@@H](CC(=O)O)C(=O)O[C@@H]3CC[C@@]4(C)[C@H](CC[C@@H]5[C@@H]4CC[C@]4(C)[C@@H]([C@H](C)CCC(=O)OCCOCCOCCOCCOCCN=[N+]=[N-])CC[C@@H]54)C3)cc(=O)oc2c1`: 5.7 µM, 0%, more than 88 and more than 90%.
On to `C[C@H](CCC(=O)O)[C@H]1CC[C@H]2[C@@H]3CC[C@@H]4C[C@H](OC(=O)[C@H](CCC(=O)O)Nc5ccc([N+](=O)[O-])c6nonc56)CC[C@]4(C)[C@H]3CC[C@]12C`, for which the half-inhibitory concentration (IC50) was 0.9 µM in [8] and 13.2 µM in series [11]. The Ratio IC50 in the series filed under Rattus norvegicus [12] came out at 15; in [3] it was 9.
For the compound `C[C@H](CCC(=O)OCCOCCOCCOCCOCCN=[N+]=[N-])[C@H]1CC[C@H]2[C@@H]3CC[C@@H]4C[C@H](OC(=O)[C@H](CC(=O)O)Nc5ccc([N+](=O)[O-])c6nonc56)CC[C@]4(C)[C@H]3CC[C@]12C`, the IC50 worked out at 1 µM in [8] and 5 µM in series [1]. In series [2], the inhibition was 0%. Moreover, the Selectivity ratio in the series filed under Rattus norvegicus [9] was more than 516. The Ratio IC50 in series [3] was more than 99. Also, the viability in series [4] was more than 90%.
`C[C@H](CCC(=O)OCCN=[N+]=[N-])[C@H]1CC[C@H]2[C@@H]3CC[C@@H]4C[C@H](OC(=O)[C@H](CC(=O)O)Nc5ccc([N+](=O)[O-])c6nonc56)CC[C@]4(C)[C@H]3CC[C@]12C`: the figures for the IC50 in series [8] and in [1] were 0.8 µM and 4.2 µM, respectively. For the same compound, in series [2], the inhibition turned out to be 0%. Moreover, the Selectivity ratio in the series filed under Rattus norvegicus [9] is more than 625. The Ratio IC50 in [3] was more than 119. Further, the viability in [4] was more than 90%.

The values are drawn from ChEMBL document CHEMBL4765481, “Sialyltransferase Inhibitors Suppress Breast Cancer Metastasis” (J Med Chem, 2021).
